Test results reported in patent publication US8293743B2, “Substituted imidazo[1,2-A]pyrazine derivatives as alpha-helix mimetics and method relating to the treatment of cancer stem cells” (Choongwae Pharma Corporation, priority 2005, dated 2012).
“Also recorded” adds a separate entry of the source.

Legend:
MDR-1 [1] = assay: MDR-1/luciferase reporter activity in MES-SA/Dx5 cells; type: cell-based, human; details: read-out: IC50, reduction of MDR-1 luciferase activity
Description: (§1) To investigate differential coactivator usage for the transcriptional regulation of the MDR-1 gene in MES-SA cells, the chemogenomic tool ICG-001 was used (Emami et al. 2004).

MDR-1 [2] = assay: MDR-1 protein expression in MES-SA/Dx5 cells (immunofluorescence, immunoblotting); type: cell-based, human; details: immunofluorescence and immunoblotting, dose dependent
Description: as §1

MDR-1 [3] = assay: MDR-1/luciferase activity in isogenic HCT116 cell lines; type: cell-based
Description: To further confirm the importance of the role of nuclear β-catenin in driving MDR-1 expression, isogenic HCT-116 cell lines were utilized (Waldmann 2002).
MDR-1 transcriptional regulation in the isogenic HCT116 cell lines was also investigated. […] Transfection of p300 decreased MDR-1/luciferase activity below control levels in all 3 cell lines (FIG. 17A).

MDR-1 promoter = assay: ChIP assay of coactivator occupancy of the MDR-1 promoter in MES-SA/Dx5 cells; type: cell-based, human
Description: Similar ICG-001 induced p300 recruitment at the survivin promoter has been previously observed, which was associated with recruitment of proteins associated with transcriptional repression (i.e., HDAC6 and PML) (H Ma et al. Oncogene 2005). A proposed non-binding mechanism is repressive transcriptional apparatus recruitment to the MDR-1 promoter by p300.

MES-SA/Dx5 cells = assay: Cell proliferation/viability of MES-SA/Dx5 cells, Doxorubicin +/- ICG-001; type: cell-based, human; details: in combination with Doxorubicin
Protocol: (§2) MDR transporters are believed to play important roles in protecting cancer stem cells from chemotherapy (Dean et al, Nat. Rev. Cancer 5, 275, 2005). To further study this phenomenon, a series of experiments was performed.

[4] = test system: K562 imatinib resistant cells; assay: Cell proliferation/viability of K562 imatinib resistant cells, Imatinib mesylate +/- ICG-001; type: cell-based; details: in combination with Imatinib mesylate
Protocol: as §2

caspase3/7 = assay: Caspase3/7 activation in MES-SA/Dx5 cells; type: cell-based, human; details: added to cells treated with 1 mg/ml or 5 mg/ml of Doxorubicin
Protocol: as §2

CD34+ CML blasts = assay: Colony formation (CFU) of CD34+ blasts from bone marrow of CML patients; type: cell-based; details: for total colony forming units (CFU): combination ICG-001 and imatinib vs control or either drug alone
normal CD34+ cells = assay: Effect on normal CD34+ hematopoietic cells (cellularity, colony formation); type: cell-based
Description: This is the result of the emergence of leukemic drug resistant clones associated with increased nuclear β-catenin levels, a hallmark of increased TCF/β-catenin transcription (Weissman NEJM 2003). […] In sharp contrast, the control colonies were large and compact.

K562 cells = assay: Differentiation and caspase activation in K562 cells; type: cell-based
A2780 = assay: Colony inhibition assay, A2780; type: cell-based; details: for Average plating efficiency: A2780, 80 cells/well
Protocol: (§3) Colony inhibition assays were performed, in which plated cells from A2780, CP70, IGROV-1 and B16 cells were exposed to doses of ICG-001 within the range of 0.625 to 10 μM. An exemplary experiment is illustrated in Table 3.
(§4) Table 4 presents data on the plating efficiencies of cultured cells from A2780, CP70, IGROV-1 and B16 in control wells as well as in wells exposed to ICG-001.
(§5) The cells were tested at range of concentrations of ICG-001 between 0.625 and 10 μM and at cisplatin concentrations between 1.25 to 20 μM. All three ovarian cancer lines tested (A2780, CP70 and IGROV-1) were more sensitive to ICG-001 than to cisplatin. […] The cisplatin-sensitive lines, IGROV-1 and A2780, had similar sensitivity to ICG-001 as to cisplatin (FIGS. 23A and B).

CP70 = assay: Colony inhibition assay, CP70; type: cell-based; details: for Average plating efficiency: CP70, 80 cells/well
Protocol: as §3, §4, §5

IGROV-1 = assay: Colony inhibition assay, IGROV-1; type: cell-based; details: IGROV-1, 80 cells/well
Protocol: as §3, §4, §5

IGROV-1/CP = assay: Colony inhibition assay, IGROV-1/CP; type: cell-based; details: 80 cells/well
B16 = assay: Colony inhibition assay, B16 melanoma; type: cell-based, mouse; details: B16, 80 cells/well
Protocol: as §3, §4

CBP-β-catenin = molecular target: T1, CBP-β-catenin (Homo sapiens, UniProt Q92793); assay: TOPFlash reporter system in SW480 cells (CBP-β-catenin binding); type: cell-based; details: increasing concentrations
T1 construct: tested using the TOPFlash reporter system in SW480 cells; endogenous in cells; host or cells: SW480 cells
Protocol: The effect of several compounds on CBP-β-catenin binding was tested using the TOPFlash reporter system in SW480 cells.

T1 sequence (Q92793 whole entry): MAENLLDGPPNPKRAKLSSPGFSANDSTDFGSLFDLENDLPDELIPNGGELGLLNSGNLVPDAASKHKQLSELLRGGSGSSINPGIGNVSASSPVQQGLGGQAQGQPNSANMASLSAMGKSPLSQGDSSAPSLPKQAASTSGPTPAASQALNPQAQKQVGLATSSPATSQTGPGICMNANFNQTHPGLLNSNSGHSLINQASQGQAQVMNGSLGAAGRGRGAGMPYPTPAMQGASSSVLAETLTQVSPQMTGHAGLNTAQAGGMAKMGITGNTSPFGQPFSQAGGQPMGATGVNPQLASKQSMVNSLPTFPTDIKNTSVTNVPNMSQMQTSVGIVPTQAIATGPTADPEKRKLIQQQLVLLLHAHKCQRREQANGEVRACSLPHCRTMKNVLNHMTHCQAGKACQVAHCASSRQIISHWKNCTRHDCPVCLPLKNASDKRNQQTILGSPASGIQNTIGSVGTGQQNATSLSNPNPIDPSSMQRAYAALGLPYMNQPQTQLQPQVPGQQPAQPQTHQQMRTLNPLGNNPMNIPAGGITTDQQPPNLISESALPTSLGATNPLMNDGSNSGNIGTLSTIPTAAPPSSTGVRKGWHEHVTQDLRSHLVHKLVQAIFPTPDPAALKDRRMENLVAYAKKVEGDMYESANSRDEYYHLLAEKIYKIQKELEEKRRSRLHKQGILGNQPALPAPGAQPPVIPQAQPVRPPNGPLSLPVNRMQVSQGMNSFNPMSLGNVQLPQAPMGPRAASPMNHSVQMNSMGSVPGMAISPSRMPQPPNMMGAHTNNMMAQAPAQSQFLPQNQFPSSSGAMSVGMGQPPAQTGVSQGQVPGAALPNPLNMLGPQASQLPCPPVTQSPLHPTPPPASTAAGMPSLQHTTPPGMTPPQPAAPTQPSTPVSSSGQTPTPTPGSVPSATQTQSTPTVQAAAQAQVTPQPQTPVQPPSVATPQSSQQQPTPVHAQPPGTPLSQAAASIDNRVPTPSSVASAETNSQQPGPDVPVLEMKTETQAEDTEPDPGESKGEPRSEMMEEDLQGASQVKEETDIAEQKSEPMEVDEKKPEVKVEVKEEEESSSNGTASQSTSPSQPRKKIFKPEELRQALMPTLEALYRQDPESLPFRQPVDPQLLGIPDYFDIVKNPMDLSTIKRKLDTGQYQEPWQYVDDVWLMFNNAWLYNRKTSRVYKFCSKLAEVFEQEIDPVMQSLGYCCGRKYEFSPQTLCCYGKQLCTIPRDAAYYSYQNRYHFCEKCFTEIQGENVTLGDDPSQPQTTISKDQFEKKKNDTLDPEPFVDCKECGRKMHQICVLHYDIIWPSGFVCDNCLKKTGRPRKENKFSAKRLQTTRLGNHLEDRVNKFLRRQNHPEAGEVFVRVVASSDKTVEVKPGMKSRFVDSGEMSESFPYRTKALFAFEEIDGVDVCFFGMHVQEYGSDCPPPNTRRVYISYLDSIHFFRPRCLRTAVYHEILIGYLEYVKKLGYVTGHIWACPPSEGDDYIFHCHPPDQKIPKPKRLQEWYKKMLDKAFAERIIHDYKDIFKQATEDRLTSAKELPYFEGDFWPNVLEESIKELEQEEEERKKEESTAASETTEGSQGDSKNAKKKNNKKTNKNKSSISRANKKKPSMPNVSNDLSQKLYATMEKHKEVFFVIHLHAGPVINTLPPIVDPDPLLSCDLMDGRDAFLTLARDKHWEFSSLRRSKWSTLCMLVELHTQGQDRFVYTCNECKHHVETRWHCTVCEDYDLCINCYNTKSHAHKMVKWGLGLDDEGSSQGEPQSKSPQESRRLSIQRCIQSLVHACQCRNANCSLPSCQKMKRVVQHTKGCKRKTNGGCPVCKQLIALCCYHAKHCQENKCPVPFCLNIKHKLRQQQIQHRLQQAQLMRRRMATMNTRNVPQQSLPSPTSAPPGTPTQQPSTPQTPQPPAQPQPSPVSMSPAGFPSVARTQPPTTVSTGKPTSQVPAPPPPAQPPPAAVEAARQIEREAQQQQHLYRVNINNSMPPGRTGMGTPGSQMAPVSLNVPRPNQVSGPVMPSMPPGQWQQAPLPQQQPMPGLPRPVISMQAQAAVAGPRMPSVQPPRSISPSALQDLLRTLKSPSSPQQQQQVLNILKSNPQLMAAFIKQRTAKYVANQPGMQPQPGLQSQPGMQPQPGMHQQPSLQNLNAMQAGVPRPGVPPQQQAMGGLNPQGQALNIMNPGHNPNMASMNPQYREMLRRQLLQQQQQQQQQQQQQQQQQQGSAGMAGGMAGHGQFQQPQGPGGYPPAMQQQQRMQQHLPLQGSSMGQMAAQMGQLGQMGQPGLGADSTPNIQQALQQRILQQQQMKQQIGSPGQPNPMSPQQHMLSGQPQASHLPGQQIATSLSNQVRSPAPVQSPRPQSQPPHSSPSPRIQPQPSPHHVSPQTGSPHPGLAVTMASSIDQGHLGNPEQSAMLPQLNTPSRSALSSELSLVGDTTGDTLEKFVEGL

SMILES: O=C1[C@H](Cc2ccc(O)cc2)N2C(=O)CCN(C(=O)NCc3ccccc3)[C@H]2CN1Cc1cccc2ccccc12 [ICG-001]
- IC50 (MDR-1 [1]): ~16 µM
- level of MDR-1 protein expression (MDR-1 [2]): significantly reduced
- MDR-1/luciferase activity (MDR-1 [3]; HCT-116 wild type): dose dependently decreased
- MDR-1/luciferase activity (MDR-1 [3]; Hβ18(ko/*) cell line): dose dependently decreased
- MDR-1/luciferase activity (MDR-1 [3]; Hβ92(wt/ko) cells): essentially no further reduction below basal levels
- occupancy of the MDR-1 promoter by CBP (MDR-1 promoter): blocked in a dose dependent fashion
- occupancy of the MDR-1 promoter by p300 (MDR-1 promoter; 25 uM ICG-001): occupancy increased
- decrease of cell proliferation/viability, combination vs either agent alone (MES-SA/Dx5 cells): significantly more effective
- decrease of cell proliferation/viability, combination vs either agent alone [4]: significantly more effective
- caspase3/7 activation (caspase3/7): increased caspase3/7 activation significantly
- total colony forming units (CFU) (CD34+ CML blasts): most significant reduction
- total colony forming units (CFU) (CD34+ CML blasts; listed as IGC-001): significant additive effect
- colony formation of normal CD34+ hematopoietic cells (normal CD34+ cells): did not affect colony formation
- total cellularity, CFU-Es and BFU-Es (normal CD34+ cells): minimal effects
- adverse effects on normal CD34+ cells (normal CD34+ cells; up to 20 μM): did not have significant adverse effects
- caspase activation (K562 cells): not capase activation
- differentiation (K562 cells): induced differentiation
- COLONIES (n = 4) M +/− SD (A2780; 0.625 μM ICG-001): 74 +/− 4.7
- COLONIES (n = 4) M +/− SD (A2780; 1.25 μM ICG-001): 28 +/− 13.2
- COLONIES (n = 4) M +/− SD (A2780; 2.5 μM ICG-001): 0.25 +/− 0.5
- COLONIES (n = 4) M +/− SD (A2780; 5 μM ICG-001): 0
- COLONIES (n = 4) M +/− SD (A2780; 10 μM ICG-001): 0
- Average plating efficiency (A2780; 0.625 μM): 25%
- Average plating efficiency (A2780; 1.25 μM): 35%
- Average plating efficiency (A2780; 2.5 μM): 6%
- Average plating efficiency (A2780; 5 μM): 0%
- Average plating efficiency (A2780; 10 μM): 0%
- Average plating efficiency (CP70; 0.625 μM): 35%
- Average plating efficiency (CP70; 1.25 μM): 35%
- Average plating efficiency (CP70; 2.5 μM): 13%
- Average plating efficiency (CP70; 5 μM): 1%
- Average plating efficiency (CP70; 10 μM): 0%
- inhibition (CP70; cisplatin-resistant line CP70, 5 μM): > 90%
- Average plating efficiency (IGROV-1; 0.625 μM): 31%
- Average plating efficiency (IGROV-1; 1.25 μM): 24%
- Average plating efficiency (IGROV-1; 2.5 μM): 8%
- Average plating efficiency (IGROV-1; 5 μM): 1%
- Average plating efficiency (IGROV-1; 10 μM): 0%
- Average plating efficiency (IGROV-1/CP; 0.625 μM): 59%
- Average plating efficiency (IGROV-1/CP; 1.25 μM): 25%
- Average plating efficiency (IGROV-1/CP; 2.5 μM): 13%
- Average plating efficiency (IGROV-1/CP; 5 μM): 6%
- Average plating efficiency (IGROV-1/CP; 10 μM): 0%
- Average plating efficiency (B16; 0.625 μM): 24%
- Average plating efficiency (B16; 1.25 μM): 18%
- Average plating efficiency (B16; 2.5 μM): 3%
- Average plating efficiency (B16; 5 μM): 0%
- Average plating efficiency (B16; 10 μM): 0%
- effect on CBP-β-catenin binding (TOPFlash reporter) (CBP-β-catenin; listed as ICG-100): inhibited

SMILES: O=C1[C@H](Cc2ccc(O)cc2)N2C(=O)CCN(C(=O)NCc3ccccc3)[C@H]2CN1Cc1cccc2ccccc12 [PRI-004]
- colony formation (CD34+ CML blasts; 500 nM, FIG. 21C legend): completely blocks colony formation
- effect on CBP-β-catenin binding (TOPFlash reporter) (CBP-β-catenin): effective; also recorded: inhibited
